#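 Growth conditions: 96-well plates. Treatment: test compound, 48 hours, 5 concentrations. Analysis: linear interpolation between bracketing concentrations; unreached endpoints set to highest concentration. TGI is the concentration that stops growth completely.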
# Key:
# Experiment in all cases: NCI-60 cell line screen, 48 h
# SK-MEL-28 melanoma = tested on: SK-MEL-28 melanoma
# MDA-N = tested on: MDA-N
# HCC-2998 colon = tested on: HCC-2998 colon
# HOP-62 NSCLC = tested on: HOP-62 NSCLC
# A498 renal = tested on: A498 renal
# OVCAR-8 ovarian = tested on: OVCAR-8 ovarian
# HT29 colon = tested on: HT29 colon
# IGROV1 ovarian = tested on: IGROV1 ovarian
# KM12 colon = tested on: KM12 colon
# UO-31 renal = tested on: UO-31 renal
# PC-3 prostate = tested on: PC-3 prostate
# UACC-62 melanoma = tested on: UACC-62 melanoma
# NCI-H460 lung = tested on: NCI-H460 lung
# U251 CNS = tested on: U251 CNS
# NCI-H522 lung = tested on: NCI-H522 lung
# SNB-19 CNS = tested on: SNB-19 CNS
# HL-60(TB) leukemia = tested on: HL-60(TB) leukemia
# 786-0 renal = tested on: 786-0 renal
# NCI-H23 lung = tested on: NCI-H23 lung
# A549 NSCLC = tested on: A549 NSCLC
# HCT-15 colon = tested on: HCT-15 colon
# DU-145 prostate = tested on: DU-145 prostate
# SR leukemia = tested on: SR leukemia
# HOP-92 NSCLC = tested on: HOP-92 NSCLC
# ACHN renal = tested on: ACHN renal
# HCT-116 colon = tested on: HCT-116 colon
# SK-MEL-5 melanoma = tested on: SK-MEL-5 melanoma
# T-47D breast = tested on: T-47D breast
# RPMI-8226 leukemia = tested on: RPMI-8226 leukemia
# NCI/ADR-RES ovarian = tested on: NCI/ADR-RES ovarian
# OVCAR-4 ovarian = tested on: OVCAR-4 ovarian
# UACC-257 melanoma = tested on: UACC-257 melanoma
# TK-10 renal = tested on: TK-10 renal
# SW-620 colon = tested on: SW-620 colon
# SF-268 CNS = tested on: SF-268 CNS
# OVCAR-5 ovarian = tested on: OVCAR-5 ovarian
# MDA-MB-435 = tested on: MDA-MB-435
# SN12C renal = tested on: SN12C renal
# SF-539 CNS = tested on: SF-539 CNS
# K-562 leukemia = tested on: K-562 leukemia
# BT-549 breast = tested on: BT-549 breast
# NCI-H226 lung = tested on: NCI-H226 lung
# M14 melanoma = tested on: M14 melanoma
# LOX IMVI melanoma = tested on: LOX IMVI melanoma
# RXF 393 renal = tested on: RXF 393 renal
# EKVX NSCLC = tested on: EKVX NSCLC
# SK-MEL-2 melanoma = tested on: SK-MEL-2 melanoma
# MCF7 breast = tested on: MCF7 breast
# CCRF-CEM leukemia = tested on: CCRF-CEM leukemia
# HS 578T breast = tested on: HS 578T breast
# COLO 205 colon = tested on: COLO 205 colon
# SNB-75 CNS = tested on: SNB-75 CNS
# MALME-3M melanoma = tested on: MALME-3M melanoma
# CAKI-1 renal = tested on: CAKI-1 renal
# SK-OV-3 ovarian = tested on: SK-OV-3 ovarian
# OVCAR-3 ovarian = tested on: OVCAR-3 ovarian
# SF-295 CNS = tested on: SF-295 CNS
# MDA-MB-231 breast = tested on: MDA-MB-231 breast
# MOLT-4 leukemia = tested on: MOLT-4 leukemia
smiles,measurement,setting,value
COC(=O)c1c(C)cccc1C1CN=NC12Cc1cccc(C)c1C2=O (stereo not given),TGI,SK-MEL-28 melanoma,> 100 µM
same,TGI,MDA-N,> 100 µM
same,TGI,HCC-2998 colon,> 100 µM
same,TGI,HOP-62 NSCLC,> 100 µM
same,TGI,A498 renal,> 100 µM
same,TGI,OVCAR-8 ovarian,> 100 µM
same,TGI,HT29 colon,> 100 µM
same,TGI,IGROV1 ovarian,> 100 µM
same,TGI,KM12 colon,> 100 µM
same,TGI,UO-31 renal,67.7 µM
same,TGI,PC-3 prostate,71.1 µM
same,TGI,UACC-62 melanoma,74 µM
same,TGI,NCI-H460 lung,45.1 µM
same,TGI,U251 CNS,> 100 µM
same,TGI,NCI-H522 lung,75.7 µM
same,TGI,SNB-19 CNS,> 100 µM
same,TGI,HL-60(TB) leukemia,33.6 µM
same,TGI,786-0 renal,> 100 µM
same,TGI,NCI-H23 lung,> 100 µM
same,TGI,A549 NSCLC,66.8 µM
same,TGI,HCT-15 colon,> 100 µM
same,TGI,DU-145 prostate,> 100 µM
same,TGI,SR leukemia,> 100 µM
same,TGI,HOP-92 NSCLC,47.6 µM
same,TGI,ACHN renal,> 100 µM
same,TGI,HCT-116 colon,> 100 µM
same,TGI,SK-MEL-5 melanoma,40.1 µM
same,TGI,T-47D breast,> 100 µM
same,TGI,RPMI-8226 leukemia,> 100 µM
same,TGI,NCI/ADR-RES ovarian,> 100 µM
same,TGI,OVCAR-4 ovarian,> 100 µM
same,TGI,UACC-257 melanoma,57.7 µM
same,TGI,TK-10 renal,> 100 µM
same,TGI,SW-620 colon,> 100 µM
same,TGI,SF-268 CNS,> 100 µM
same,TGI,OVCAR-5 ovarian,> 100 µM
same,TGI,MDA-MB-435,> 100 µM
same,TGI,SN12C renal,> 100 µM
same,TGI,SF-539 CNS,44.5 µM
same,TGI,K-562 leukemia,79.5 µM
same,TGI,BT-549 breast,88.6 µM
same,TGI,NCI-H226 lung,98.4 µM
same,TGI,M14 melanoma,25.5 µM
same,TGI,LOX IMVI melanoma,32.7 µM
same,TGI,RXF 393 renal,> 100 µM
same,TGI,EKVX NSCLC,> 100 µM
same,TGI,SK-MEL-2 melanoma,94.7 µM
same,TGI,MCF7 breast,> 100 µM
same,TGI,CCRF-CEM leukemia,71.1 µM
same,TGI,HS 578T breast,> 100 µM
same,TGI,COLO 205 colon,> 100 µM
same,TGI,SNB-75 CNS,> 100 µM
same,TGI,MALME-3M melanoma,87.2 µM
same,TGI,CAKI-1 renal,> 100 µM
CC(C)Oc1cc2c(cc1O)CC[C@@H]1[C@@H]2CC[C@]2(C)[C@@H](O)CC[C@@H]12,TGI,SK-MEL-28 melanoma,56.6 µM
same,TGI,MDA-N,3.6 µM
same,TGI,HCC-2998 colon,20.9 µM
same,TGI,SK-OV-3 ovarian,48.3 µM
same,TGI,HOP-62 NSCLC,18.1 µM
same,TGI,A498 renal,26.9 µM
same,TGI,OVCAR-8 ovarian,60.6 µM
same,TGI,OVCAR-3 ovarian,12 µM
same,TGI,HT29 colon,23 µM
same,TGI,IGROV1 ovarian,42.9 µM
same,TGI,KM12 colon,16.5 µM
same,TGI,UO-31 renal,46.6 µM
same,TGI,PC-3 prostate,> 67.4 µM
same,TGI,UACC-62 melanoma,13.2 µM
same,TGI,SF-295 CNS,11.8 µM
same,TGI,NCI-H460 lung,14.4 µM
same,TGI,U251 CNS,24.4 µM
same,TGI,NCI-H522 lung,6.75 µM
same,TGI,SNB-19 CNS,31.8 µM
same,TGI,HL-60(TB) leukemia,> 38.1 µM
same,TGI,786-0 renal,36.1 µM
same,TGI,NCI-H23 lung,37.4 µM
same,TGI,MDA-MB-231 breast,26.6 µM
same,TGI,A549 NSCLC,65.9 µM
same,TGI,HCT-15 colon,19.1 µM
same,TGI,DU-145 prostate,59.7 µM
same,TGI,SR leukemia,27.8 µM
same,TGI,HOP-92 NSCLC,33.5 µM
same,TGI,ACHN renal,> 84.7 µM
same,TGI,HCT-116 colon,14.7 µM
same,TGI,SK-MEL-5 melanoma,12.8 µM
same,TGI,T-47D breast,35.7 µM
same,TGI,RPMI-8226 leukemia,35.7 µM
same,TGI,NCI/ADR-RES ovarian,19.9 µM
same,TGI,OVCAR-4 ovarian,61.1 µM
same,TGI,UACC-257 melanoma,24.6 µM
same,TGI,TK-10 renal,54.6 µM
same,TGI,SW-620 colon,27.2 µM
same,TGI,MOLT-4 leukemia,30.2 µM
same,TGI,SF-268 CNS,51.7 µM
same,TGI,OVCAR-5 ovarian,60.7 µM
same,TGI,MDA-MB-435,10.9 µM
same,TGI,SN12C renal,29.1 µM
same,TGI,SF-539 CNS,6.93 µM
same,TGI,K-562 leukemia,30.8 µM
same,TGI,BT-549 breast,52.7 µM
same,TGI,NCI-H226 lung,18.4 µM
same,TGI,M14 melanoma,18.4 µM
same,TGI,LOX IMVI melanoma,18.3 µM
same,TGI,RXF 393 renal,17.2 µM
same,TGI,EKVX NSCLC,> 62 µM
same,TGI,SK-MEL-2 melanoma,> 24.8 µM
same,TGI,MCF7 breast,30.3 µM
same,TGI,CCRF-CEM leukemia,> 39.8 µM
same,TGI,COLO 205 colon,40.7 µM
same,TGI,SNB-75 CNS,53.1 µM
same,TGI,MALME-3M melanoma,27.3 µM
same,TGI,CAKI-1 renal,> 20 µM
O=C1CCc2cc3c(cc21)C(C(=O)O)CC3 (stereo not given),TGI,SK-MEL-28 melanoma,> 100 µM
same,TGI,MDA-N,> 100 µM
same,TGI,HCC-2998 colon,> 100 µM
same,TGI,SK-OV-3 ovarian,> 100 µM
same,TGI,HOP-62 NSCLC,> 100 µM
same,TGI,OVCAR-8 ovarian,> 100 µM
same,TGI,HT29 colon,> 100 µM
same,TGI,IGROV1 ovarian,> 100 µM
same,TGI,KM12 colon,> 100 µM
same,TGI,UO-31 renal,> 100 µM
same,TGI,PC-3 prostate,> 100 µM
same,TGI,UACC-62 melanoma,> 100 µM
same,TGI,SF-295 CNS,> 100 µM
same,TGI,NCI-H460 lung,> 100 µM
same,TGI,U251 CNS,> 100 µM
same,TGI,NCI-H522 lung,> 100 µM
same,TGI,SNB-19 CNS,> 100 µM
same,TGI,HL-60(TB) leukemia,> 100 µM
same,TGI,786-0 renal,> 100 µM
same,TGI,NCI-H23 lung,> 100 µM
same,TGI,MDA-MB-231 breast,> 100 µM
same,TGI,A549 NSCLC,> 100 µM
same,TGI,HCT-15 colon,> 100 µM
same,TGI,DU-145 prostate,> 100 µM
same,TGI,SR leukemia,> 100 µM
same,TGI,ACHN renal,> 100 µM
same,TGI,HCT-116 colon,> 100 µM
same,TGI,SK-MEL-5 melanoma,> 100 µM
same,TGI,T-47D breast,> 100 µM
same,TGI,RPMI-8226 leukemia,> 100 µM
same,TGI,NCI/ADR-RES ovarian,> 100 µM
same,TGI,OVCAR-4 ovarian,> 100 µM
same,TGI,UACC-257 melanoma,> 100 µM
same,TGI,TK-10 renal,> 100 µM
same,TGI,SW-620 colon,> 100 µM
same,TGI,MOLT-4 leukemia,> 100 µM
same,TGI,SF-268 CNS,> 100 µM
same,TGI,OVCAR-5 ovarian,> 100 µM
same,TGI,SN12C renal,> 100 µM
same,TGI,SF-539 CNS,> 100 µM
same,TGI,K-562 leukemia,> 100 µM
same,TGI,BT-549 breast,> 100 µM
same,TGI,NCI-H226 lung,> 100 µM
same,TGI,M14 melanoma,> 100 µM
same,TGI,LOX IMVI melanoma,> 100 µM
same,TGI,RXF 393 renal,> 100 µM
same,TGI,EKVX NSCLC,> 100 µM
same,TGI,SK-MEL-2 melanoma,> 100 µM
same,TGI,MCF7 breast,> 100 µM
same,TGI,CCRF-CEM leukemia,> 100 µM
same,TGI,HS 578T breast,> 100 µM
same,TGI,COLO 205 colon,> 100 µM
same,TGI,SNB-75 CNS,> 100 µM
same,TGI,MALME-3M melanoma,> 100 µM
same,TGI,CAKI-1 renal,> 100 µM
O=C1c2c(O)cccc2Cc2cccc(O)c21,TGI,SK-MEL-28 melanoma,3.75 µM
same,TGI,MDA-N,10.2 µM
same,TGI,SK-OV-3 ovarian,1.21 µM
same,TGI,HOP-62 NSCLC,1.32 µM
same,TGI,A498 renal,4.81 µM
same,TGI,OVCAR-8 ovarian,1.04 µM
same,TGI,OVCAR-3 ovarian,1.97 µM
same,TGI,HT29 colon,1.55 µM
same,TGI,IGROV1 ovarian,1.56 µM
same,TGI,KM12 colon,1.32 µM
same,TGI,UO-31 renal,1.15 µM
same,TGI,UACC-62 melanoma,3.07 µM
same,TGI,SF-295 CNS,0.782 µM
same,TGI,NCI-H460 lung,1.31 µM
same,TGI,U251 CNS,1.47 µM
same,TGI,SNB-19 CNS,5.39 µM
same,TGI,HL-60(TB) leukemia,0.672 µM
same,TGI,786-0 renal,1.76 µM
same,TGI,NCI-H23 lung,12.8 µM
same,TGI,A549 NSCLC,1.07 µM
same,TGI,DU-145 prostate,0.942 µM
same,TGI,SR leukemia,1.74 µM
same,TGI,ACHN renal,1.1 µM
same,TGI,SK-MEL-5 melanoma,0.33 µM
same,TGI,RPMI-8226 leukemia,1.03 µM
same,TGI,OVCAR-4 ovarian,1.8 µM
same,TGI,UACC-257 melanoma,0.653 µM
same,TGI,TK-10 renal,5.35 µM
same,TGI,SF-268 CNS,3.25 µM
same,TGI,MDA-MB-435,11.2 µM
same,TGI,SF-539 CNS,0.923 µM
same,TGI,NCI-H226 lung,1.27 µM
same,TGI,M14 melanoma,1.97 µM
same,TGI,RXF 393 renal,1.33 µM
same,TGI,EKVX NSCLC,0.572 µM
same,TGI,MCF7 breast,0.664 µM
same,TGI,HS 578T breast,1.09 µM
same,TGI,CAKI-1 renal,1.2 µM
